Several values for one entry are separate records, joined by “and”; a condition that tells them apart may be missing. Identical values can stand only once. Inconclusive results and toxic doses are left out. Square brackets hold non-standard residues; d marks the D form. Peptide text beside a SMILES is read from it. ξ: configuration not given here. ξH = NC(Cc1c[nH]cn1)C(=O)O
Test system: P388 leukemia ip, CD2F1 mice, survival T/C
Experiment: NCI In Vivo Anticancer Drug Screen. Data for tumor model P388 Leukemia (intraperitoneal) in CD2F1 (CDF1) mice
Conditions: endpoint: median survival time, higher = longer survival
Procedure, shortened: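 Mice carrying the transplanted tumor received test compound or vehicle. Survival was recorded in each group, and the value is the treated-group measurement divided by that of the vehicle-treated control group.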

[1] = dose: 50.0 mg/kg/injection, schedule: Q01DX005 (ip), vehicle: saline with Tween-80
[2] = dose: 100.0 mg/kg/injection, schedule: Q01DX005 (ip), vehicle: saline with Tween-80
[3] = dose: 200.0 mg/kg/injection, schedule: Q01DX005 (ip), vehicle: saline with Tween-80
[4] = dose: 50.0 mg/kg/injection, schedule: Q01DX009 (ip), vehicle: Klucel (hydroxypropylcellulose) (HPC)
[5] = dose: 100.0 mg/kg/injection, schedule: Q01DX009 (ip), vehicle: Klucel (hydroxypropylcellulose) (HPC)
[6] = dose: 50.0 mg/kg/injection, schedule: Q01DX005 (ip), vehicle: Klucel (hydroxypropylcellulose) (HPC)
[7] = dose: 100.0 mg/kg/injection, schedule: Q01DX005 (ip), vehicle: Klucel (hydroxypropylcellulose) (HPC)
[8] = dose: 60.0 mg/kg/injection, schedule: Q01DX005 (ip), vehicle: saline with Tween-80
[9] = dose: 120.0 mg/kg/injection, schedule: Q01DX005 (ip), vehicle: saline with Tween-80
[10] = dose: 240.0 mg/kg/injection, schedule: Q01DX005 (ip), vehicle: saline with Tween-80
[11] = dose: 50.0 mg/kg/injection, schedule: Q01DX005 (ip), vehicle: saline
[12] = dose: 100.0 mg/kg/injection, schedule: Q01DX005 (ip), vehicle: saline
[13] = dose: 200.0 mg/kg/injection, schedule: Q01DX005 (ip), vehicle: saline

O=C1Nc2c(Cl)cc(Cl)cc2/C1=N/N=C/c1ccco1
T/C [1]: 101 % of control
T/C [2]: 104 % of control
T/C [3]: 104 % of control

COc1ccc(C2c3cc4c(cc3OC(C)(OC)C2C)OCO4)c(OC)c1 (stereo unspecified)
T/C [1]: 88 % of control
T/C [2]: 88 % of control
T/C [3]: 91 % of control

CC1CC[N-]CC1.CC1CC[N-]CC1.CC1CC[N-]CC1.CC1CC[N-]CC1.CS(C)=O.CS(C)=O.[Cl-].[Cl-].[Cl-].[Cl-].[Pt+4].[Rh+3]
T/C (dose: 0.19 mg/kg/injection, schedule: Q01DX009 (ip), vehicle: saline): 98 % of control
T/C (dose: 0.38 mg/kg/injection, schedule: Q01DX009 (ip), vehicle: saline): 114 % of control
T/C (dose: 0.75 mg/kg/injection, schedule: Q01DX009 (ip), vehicle: saline): 105 % of control
T/C (dose: 1.5 mg/kg/injection, schedule: Q01DX009 (ip), vehicle: saline): 108 % of control
T/C (dose: 3.0 mg/kg/injection, schedule: Q01DX009 (ip), vehicle: saline): 115 % of control

CN(c1c(N)nc(N)nc1N)S(=O)(=O)c1ccc([N+](=O)[O-])cc1
T/C (dose: 60.0 mg/kg/injection, schedule: Q01DX005 (ip), vehicle: Klucel (hydroxypropylcellulose) (HPC)): 108 % of control
T/C (dose: 120.0 mg/kg/injection, schedule: Q01DX005 (ip), vehicle: Klucel (hydroxypropylcellulose) (HPC)): 104 % of control
T/C (dose: 240.0 mg/kg/injection, schedule: Q01DX005 (ip), vehicle: Klucel (hydroxypropylcellulose) (HPC)): 100 % of control

C/C=C(\C)C(=O)OC1C(C)=C2C(C1OC(=O)CCCC)C(C)(OC(C)=O)CC(OC(=O)CCCC)C1(O)C2OC(=O)C1(C)O (stereo unspecified)
T/C (dose: 0.37 mg/kg/injection, schedule: Q01DX009 (ip), vehicle: Klucel (hydroxypropylcellulose) (HPC)): 92 % of control
T/C (dose: 0.75 mg/kg/injection, schedule: Q01DX009 (ip), vehicle: Klucel (hydroxypropylcellulose) (HPC)): 101 % of control
T/C (dose: 1.5 mg/kg/injection, schedule: Q01DX009 (ip), vehicle: Klucel (hydroxypropylcellulose) (HPC)): 100 % of control
T/C (dose: 3.0 mg/kg/injection, schedule: Q01DX009 (ip), vehicle: Klucel (hydroxypropylcellulose) (HPC)): 100 % of control

CSC(=S)NS(=O)(=O)c1cccs1
T/C [4]: 98 % of control
T/C [5]: 91 % of control

CCC(CC)COC(=O)c1ccccc1C(=O)OCC(CC)CC
T/C (dose: 100.0 mg/kg/injection, schedule: Q01DX009 (ip), vehicle: saline with Tween-80): 110 % of control and 96 % of control
T/C (dose: 200.0 mg/kg/injection, schedule: Q01DX009 (ip), vehicle: saline with Tween-80): 101 % of control and 117 % of control

CCC1=NC(C)(C)CO1
T/C (dose: 50.0 mg/kg/injection, schedule: Q01DX009 (ip), vehicle: saline): 104 % of control
T/C (dose: 100.0 mg/kg/injection, schedule: Q01DX009 (ip), vehicle: saline): 97 % of control
T/C (dose: 200.0 mg/kg/injection, schedule: Q01DX009 (ip), vehicle: saline): 97 % of control

CCCC(Nc1ncccn1)Nc1ncccn1
T/C [6]: 100 % of control
T/C [7]: 100 % of control
T/C (dose: 200.0 mg/kg/injection, schedule: Q01DX005 (ip), vehicle: Klucel (hydroxypropylcellulose) (HPC)): 99 % of control

COC(=O)C(Cc1c[nH]c2ccccc12)NC(=O)C(NC(=O)OC(C)(C)C)C(C)C (stereo unspecified)
T/C [4]: 101 % of control
T/C [5]: 99 % of control
T/C (dose: 200.0 mg/kg/injection, schedule: Q01DX009 (ip), vehicle: Klucel (hydroxypropylcellulose) (HPC)): 97 % of control
T/C (dose: 400.0 mg/kg/injection, schedule: Q01DX009 (ip), vehicle: Klucel (hydroxypropylcellulose) (HPC)): 90 % of control

O=C(/C=C/c1ccccc1)O[C@@H]1CC2CC1C[C@@H]2c1cnc[nH]1 (stereo partly specified)
T/C (dose: 25.0 mg/kg/injection, schedule: Q04DX002 (ip), vehicle: saline with Tween-80): 98 % of control
T/C (dose: 50.0 mg/kg/injection, schedule: Q04DX002 (ip), vehicle: saline with Tween-80): 100 % of control
T/C (dose: 100.0 mg/kg/injection, schedule: Q04DX002 (ip), vehicle: saline with Tween-80): 99 % of control

OCC1OC(n2ccn(C3OC(CO)C(O)C3O)c2=S)C(O)C1O (stereo unspecified)
T/C (dose: 25.0 mg/kg/injection, schedule: Q04DX003 (ip), vehicle: water): 103 % of control
T/C (dose: 50.0 mg/kg/injection, schedule: Q04DX003 (ip), vehicle: water): 111 % of control
T/C (dose: 100.0 mg/kg/injection, schedule: Q04DX003 (ip), vehicle: water): 111 % of control
T/C (dose: 200.0 mg/kg/injection, schedule: Q04DX003 (ip), vehicle: water): 112 % of control
T/C (dose: 400.0 mg/kg/injection, schedule: Q04DX003 (ip), vehicle: water): 111 % of control

CCn1cc(C(=O)O)c(=O)c2nc(S(C)=O)sc21 (stereo unspecified)
T/C (dose: 15.0 mg/kg/injection, schedule: Q01DX005 (ip), vehicle: saline with Tween-80): 103 % of control
T/C (dose: 30.0 mg/kg/injection, schedule: Q01DX005 (ip), vehicle: saline with Tween-80): 108 % of control
T/C [8]: 123 % of control and 97 % of control

CCNC(=O)NS(=O)(=O)c1ccc(Sc2ccc(C)cc2)nc1
T/C [8]: 98 % of control
T/C [9]: 101 % of control
T/C [10]: 94 % of control

CCOC(=O)c1c[nH]c2ccc(N(CCCl)CCCl)cc12
T/C (dose: 5.33 mg/kg/injection, schedule: Q04DX003 (ip), vehicle: saline with Tween-80): 160 % of control
T/C (dose: 6.25 mg/kg/injection, schedule: Q01DX009 (ip), vehicle: saline with Tween-80): 150 % of control
T/C (dose: 8.0 mg/kg/injection, schedule: Q04DX003 (ip), vehicle: saline with Tween-80): 160 % of control
T/C (dose: 12.0 mg/kg/injection, schedule: Q04DX003 (ip), vehicle: saline with Tween-80): 170 % of control
T/C (dose: 12.5 mg/kg/injection, schedule: Q01DX009 (ip), vehicle: saline with Tween-80): 181 % of control
T/C (dose: 18.0 mg/kg/injection, schedule: Q04DX003 (ip), vehicle: saline with Tween-80): 185 % of control
T/C (dose: 25.0 mg/kg/injection, schedule: Q01DX009 (ip), vehicle: saline with Tween-80): 109 % of control

CC1(O)CCC(O)CC1CC(=O)O (stereo unspecified)
T/C [11]: 107 % of control
T/C [12]: 100 % of control
T/C [13]: 105 % of control

COc1ccc(CCNC(=O)Cc2ccc(Cl)cc2)cc1OC
T/C [8]: 99 % of control
T/C [9]: 97 % of control
T/C [10]: 92 % of control

CCOC(=O)C(NC(=O)C(Cl)Cl)C(O)c1ccccc1 (stereo unspecified)
T/C [1]: 100 % of control
T/C [2]: 100 % of control
T/C [3]: 89 % of control

O=C1OC2(CCCCC2)Cc2oc3ccccc3c(=O)c21
T/C (dose: 25.0 mg/kg/injection, schedule: Q01DX005 (ip), vehicle: Klucel (hydroxypropylcellulose) (HPC)): 98 % of control
T/C [6]: 100 % of control
T/C [7]: 90 % of control

Cn1nnnc1-c1cccc(F)c1
T/C (dose: 50.0 mg/kg/injection, schedule: Q01DX001 (ip), vehicle: Klucel (hydroxypropylcellulose) (HPC)): 101 % of control
T/C (dose: 100.0 mg/kg/injection, schedule: Q01DX001 (ip), vehicle: Klucel (hydroxypropylcellulose) (HPC)): 102 % of control
T/C (dose: 200.0 mg/kg/injection, schedule: Q01DX001 (ip), vehicle: Klucel (hydroxypropylcellulose) (HPC)): 104 % of control

[N-]=[N+]=CC(=O)NCC(=O)NN=C(CO)CO
T/C (dose: 180.0 mg/kg/injection, schedule: Q01DX009 (ip), vehicle: water): 154 % of control
T/C (dose: 270.0 mg/kg/injection, schedule: Q01DX009 (ip), vehicle: water): 172 % of control
T/C (dose: 400.0 mg/kg/injection, schedule: Q01DX009 (ip), vehicle: water): 172 % of control
T/C (dose: 600.0 mg/kg/injection, schedule: Q01DX009 (ip), vehicle: water): 181 % of control

Cc1ccc(OP(=O)(Oc2ccc(C)cc2)Oc2ccc(C)cc2)cc1.Cc1ccc(OP(=O)(Oc2ccc(C)cc2)Oc2ccc(C)cc2)cc1.[Cl][Ni][Cl]
T/C (dose: 12.5 mg/kg/injection, schedule: Q04DX003 (ip), vehicle: Klucel (hydroxypropylcellulose) (HPC)): 102 % of control
T/C (dose: 25.0 mg/kg/injection, schedule: Q04DX003 (ip), vehicle: Klucel (hydroxypropylcellulose) (HPC)): 100 % of control and 109 % of control and 114 % of control
T/C (dose: 50.0 mg/kg/injection, schedule: Q04DX003 (ip), vehicle: Klucel (hydroxypropylcellulose) (HPC)): 100 % of control and 102 % of control

CCC(/C=C/c1ccccc1)=N\NC(=O)c1ccc(C)cc1
T/C (dose: 6.25 mg/kg/injection, schedule: Q01DX005 (ip), vehicle: saline with Tween-80): 98 % of control
T/C (dose: 12.5 mg/kg/injection, schedule: Q01DX005 (ip), vehicle: saline with Tween-80): 92 % of control
T/C (dose: 25.0 mg/kg/injection, schedule: Q01DX005 (ip), vehicle: saline with Tween-80): 89 % of control

NCC(=O)NCC(=O)NC(Cc1cnc[nH]1)C(=O)O (stereo not drawn) (H-Gly-Gly-[ξH]-OH)
T/C [11]: 103 % of control
T/C [12]: 96 % of control
T/C [13]: 104 % of control

From PubChem BioAssay AID330 (DTP/NCI, 2004)
